These results are taken from patent US20060035844A1, “Preventive or remedy for diseases caused by hyperglycemia” (priority 2002, published 2006).

One assay relates to male Zucker fa/fa rats. Briefly: Effects after mixed-carbohydrate loading with or without sucrose (plasma glucose AUC 0-3 h). The format is in vivo, rat. To be noted: Zucker fatty fa/fa rats, oral; Example 1 0.5 mg/kg, Example 2 0.3 mg/kg, acarbose 5 mg/kg, miglitol 5 mg/kg, phlorizin 100 mg/kg; 1.6 g glucose/kg load. From the text:
Next, in order to investigate whether effects caused by fructose ingestion are present, the present inventors have performed the following test using Zucker fatty fa/fa rats, model animals of type-2 diabetes. […] In the fructose-containing diet group, mixed carbohydrate (starch: sucrose: lactose=6:3:1), which corresponds approximately to carbohydrates in regular diets, was loaded. (e.g., see the following Reference 35). On the other hand, in the fructose-free diet group, mixed carbohydrate substituted the corresponding amount of starch for the amount of glucose contained within sucrose, was loaded, because sucrose is a disaccharide and is digested to glucose and fructose in the gastrointestinal tract. Then, comparison study of each diet was performed.
The FIG. 1 is a graph showing hypoglycemic effects of each drug caused by fructose ingestion.
Effects of SGLT1 Inhibitors, an SGLT Inhibitor and α-glucosidase Inhibitors After Mixed-Carbohydrate Containing Sucrose Loading
Immediately after the compound administration, mixed-carbohydrate with sucrose (starch:sucrose:lactose=6:3:1) or without sucrose (starch:lactose=7.5:1) was loaded at a dose of 1.6 g glucose/kg. The blood was collected immediately before and after the administration with the time course (0, 0.5, 1, 2, 3 hours). The plasma was collected to quantify the plasma glucose concentration. The area under the curve of plasma glucose concentration from 0 to 3 hours was calculated by the trapezoidal method. Statistical analysis was T test between existence and nonexistence of sucrose in mixed-carbohydrate solution on each compound.

A further assay addresses T1, rat SGLT1 (Rattus norvegicus, UniProt P53790).
T1 construct: expressed in transfected cells
T1 sequence (P53790 1-665): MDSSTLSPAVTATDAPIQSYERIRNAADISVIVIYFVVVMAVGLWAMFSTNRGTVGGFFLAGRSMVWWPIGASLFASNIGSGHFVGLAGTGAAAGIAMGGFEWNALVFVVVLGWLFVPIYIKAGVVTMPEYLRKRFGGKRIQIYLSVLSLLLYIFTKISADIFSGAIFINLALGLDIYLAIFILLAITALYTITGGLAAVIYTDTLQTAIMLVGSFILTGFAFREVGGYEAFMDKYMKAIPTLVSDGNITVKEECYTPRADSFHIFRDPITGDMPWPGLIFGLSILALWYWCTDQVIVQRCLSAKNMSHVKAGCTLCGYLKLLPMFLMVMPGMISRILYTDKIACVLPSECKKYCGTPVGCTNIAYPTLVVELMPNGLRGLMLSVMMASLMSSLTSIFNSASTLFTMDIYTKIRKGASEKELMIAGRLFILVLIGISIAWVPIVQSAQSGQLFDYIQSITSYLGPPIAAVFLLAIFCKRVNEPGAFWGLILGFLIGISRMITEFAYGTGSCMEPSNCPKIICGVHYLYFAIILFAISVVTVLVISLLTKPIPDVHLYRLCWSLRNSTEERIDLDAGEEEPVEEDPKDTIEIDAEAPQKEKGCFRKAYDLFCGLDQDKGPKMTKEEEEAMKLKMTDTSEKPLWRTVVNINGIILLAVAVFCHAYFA
Briefly: Assay for inhibitory effects on rat SGLT1 activity (uptake of methyl-α-D-glucopyranoside in CrS1 cells). The format is cell-based. The conditions noted are these: CHO-K1 cells stably expressing rat SGLT1 (CrS1), 1 mM α-MG, 37° C., 1 hour; read-out: IC50 value, inhibition of uptake of methyl-α-D-glucopyranoside. Here is the method:
A test compound was dissolved in dimethyl sulfoxide, and then appropriately diluted with distilled water. The test compound solution was added to the uptake buffer containing 1 mM α-MG, and designated as a measurement buffer. For the control group, the measurement buffer without any test compound was prepared. […] After repeating the same treatment, the pre-treatment buffer was removed. To each well was added 75 μL of the measurement buffer or the basal uptake buffer was added and incubated at 37° C. for 1 hour. After removing the measurement buffer, cells were washed twice with 180 μL per well of the washing buffer (the basal uptake buffer containing 10 mM non-labeled α-MG). The cells were solubilized by 75 μL per well of 0.2 mol/L sodium hydroxide. The cell lysates were transferred into PicoPlates (Packard), and then added 150 μL of MicroScint-40 (Packard) and mixed. Radioactivity was measured by means of micro-scintillation counter TopCount (Packard).

For the next assay, the system named is male Wistar rats. Briefly: Effects of an SGLT1 inhibitor on absorption of fructose (fructose tolerance test, residual fructose in the gastrointestinal tract). The format is in vivo, rat. Here is the method:
Effects of an SGLT1 Inhibitor on Absorption of Fructose
Immediately after the administration, 0.2 g/kg of fructose was loaded. After 30 minutes, rats were sacrificed with exsanguination under ether anesthesia and then the contents of stomach and small intestine were collected with 10 mL ice-cold saline. Fructose concentration was measured by fructose assay kit (D-glucose/D-Fructose; Roche diagnostics) and calculated residual fructose (% of dose) in the gastrointestinal tract. Statistical analysis between control and treated groups are calculated using T test.

As to `OCCN1C[C@H](O)[C@@H](O)[C@H](O)[C@H]1CO` [miglitol, reference compound], the “Reduction of plasma glucose concentration after sucrose-containing diet compared with sucrose-free diet (in words)” value (shortened to “Reduction … with sucrose-free diet (in words)”) in the assay with male Zucker fa/fa rats is recorded as “did not reduce plasma glucose concentration”.

The IC50 is the point on the concentration scale where inhibition reaches its midpoint. On to `Cc1cc(O)cc(O[C@@H]2O[C@H](CO)[C@@H](O)[C@H](O)[C@H]2O)c1Cc1ccc(NC(=O)NCc2cccnc2)cc1` [Example 1, 5-Hydroxy-3-methyl-2-{4-[3-(3-pyridylmethyl)ureido]benzyl}-phenyl β-D-glucopyranoside], for which, at rat SGLT1, the 50% inhibitory concentration (IC50) amounted to 139 nM. Moreover, the “Reduction … with sucrose-free diet (in words)” value in the assay with male Zucker fa/fa rats is given as “significantly reduced plasma glucose concentration”.

Regarding `Cc1cc(OCCNC(=N)N)ccc1Cc1c(O[C@@H]2O[C@H](CO)[C@@H](O)[C@H](O)[C@H]2O)n[nH]c1C(C)C` [Example 2, 3-(β-D-Glucopyranosyloxy)-4-{[4-(2-guanidinoethoxy)-2-methylphenyl]methyl}-5-isopropyl-1H-pyrazole], at rat SGLT1, the half-maximal inhibitory concentration (IC50) worked out at 38.1 nM. Further, in the assay on male Zucker fa/fa rats, the “Reduction … with sucrose-free diet (in words)” value is listed as “significantly reduced plasma glucose concentration”. Further, in the assay on male Wistar rats (0.3 mg/kg oral, 0.2 g/kg fructose load, after 30 minutes, stomach and small intestine contents, control 11.8 ± 2.1), the “Residual fructose (% of dose) in the gastrointestinal tract” value came out at 12.2 ± 2.6%. Further, the “Inhibitory effect on absorbing fructose (in words)” value in the assay on male Wistar rats (fructose tolerance test, residual fructose in the gastrointestinal tract) is given as “substantially show no inhibitory effect on absorbing fructose”.

Take `O=C(CCc1ccc(O)cc1)c1c(O)cc(O)cc1O[C@@H]1O[C@H](CO)[C@@H](O)[C@H](O)[C@H]1O` [Phlorizin, reference compound]: the “Reduction … with sucrose-free diet (in words)” value in the assay on male Zucker fa/fa rats is “did not reduce plasma glucose concentration”.
